Values belong to the compound of their own block, whether it stands above or below them.
Experiments:
PAMPA-GIT permeability = settings: for Classification / Fa experimental: GIT-PAMPA; for Fa experimental: absorbed fraction
Excerpt: (§1) The parallel artificial membrane permeability assay uses 96-well plate in a “sandwich” type system, where one plate overlaps the other (PAMPA). […] The lipid mixture that impregnates the PVDF filter has a different constitution for the permeability tests for the blood-brain barrier (Brain lipid from pig extract in dodecane) and gastro-intestinal tract (L-α soy phosphatidylcholine in dodecane). In the PAMPA BBB and TGI assays, the optical density values obtained in the reading at each selected wavelength, for each of the compounds were analyzed in comparison with the values of several controls. In the case of the BBB, these values were used to elaborate an equation and determine the permeability coefficient (Pe), using a previously elaborated spreadsheet, and, for the TGI, these values were used to determine the absorbed fraction (Fa%), both using the Excel® program.

[1] = GIT-PAMPA, ref literature, cited from earlier work; for Fa literature: absorbed fraction
PAMPA-BBB permeability = settings: for Classification: PAMPA-BBB
Excerpt: as §1

[2] = system: L. major amasitigote 5-ASKH substrain; experiment: In vitro activity against intramacrophage amastigotes, 5-ASKH; type: cell-based; settings: Leishmania major
Protocol: (§2) Briefly, female BALB/c mice (6 to 8 weeks old) received 1 mL sterile of 3% sodium thioglycolate by intraperitoneal route (i.p.) and were euthanized after 4 days. The intraperitoneal lavage was collected from the peritoneal cavity of mice using sterile PBS and cells were counted in a hemocytometer. Peritoneal adherent cells (macrophages) were plated at a concentration of 2 x 10^5 cells per well in 24-well culture plates containing glass coverslips. Subsequently, L. major promastigotes (harvested after the third passage) were added at a concentration of 2 x 10^6 parasites per well, aiming to infect the macrophages. […] After 24 hours in an incubator at 37 °C and 5% CO2, the coverslips were washed with PBS and stained with Giemsa-May Grünwald. The number of amastigotes in 100 macrophages was determined by counting using optical microscope (100x objective). Furthermore, the cell culture supernatant was also collected for nitrite measurement using the Griess reaction, an indirect way of determining the concentration of nitric oxide in the supernatant of infected macrophages from the experimental groups. The results obtained were expressed as the mean ± S.E.M. of the number of amastigotes or nitrite concentration from duplicate cultures of representative assays, with the data analyzed by ANOVA and Dunnett hoc tests, considering a significance level of p < 0.05. In addition, the linear regression analysis from the Kc values at employed concentrations was used to determine the IC50.

[3] = system: peritoneal macrophages infected with L. major LV39; experiment: Nitrite measurement (Griess reaction) in infected macrophages; type: cell-based, BALB/c mice; settings: BALB/c macrophages infected with L. major LV39
Protocol: as §2, with “In addition, the linear regression analysis from the Kc values at employed concentrations was used to determine the IC50.” left out

[4] = system: L. major amastigote LV39 substrain; experiment: In vitro activity against intramacrophage amastigotes, LV39; type: cell-based; settings: Leishmania major
Protocol: as §2

[5] = system: L. major promastigote 5-ASKH substrain; experiment: In vitro activity against promastigotes, 5-ASKH; type: cell-based, Leishmania major; settings: Leishmania major
Protocol: (§3) L. major promastigotes LV39 (MRHO/SU/59/P) were obtained from João […] Preto Medical School- USP. L. major IOC/[…] promastigotes (MHOM/SU/1973/5-ASKH) were obtained from Leishmania collection of the Oswaldo Cruz Institute-Fiocruz. L. major promastigotes LV39 (MRHO/SU/59/P) and L. major IOC/[…] (MHOM/SU/1973/5-ASKH) were grown in a Schneider's medium (Sigma-Aldrich, St. […] The determination of the leishmanicidal activity of LASSBio-1491 against L. major promastigotes was carried out according to the methodology described by […] and colleagues (1996). […] After 48h of incubation in a Biochemical Oxygen Demand (B.O.D.) incubator, the promastigotes were counted using a hemocytometer. The results obtained were expressed as the mean ± S.E.M. of the number of promastigotes from triplicate cultures of representative assays, with the data analyzed by ANOVA and Dunnett hoc tests, considering a significance level of p < 0.05.

spleen cells = experiment: Cytotoxicity against spleen cells (propidium iodide); settings: Mus musculus, 24 h
Protocol: To carry out the suspension preparation of spleen cells, BALB/c mice were euthanized, and an incision was made to remove the spleen. The spleens were macerated using the end of the plungers from a 1 mL syringe in a 70 μm strainer placed in a Petri dish containing RPMI medium. […] After incubation for 4 min at room temperature, the cells were washed with RPMI medium. Subsequently, samples from three animals were pooled and the cell suspension was passed through a 40 μm strainer. Cells were counted in a Neubauer chamber and splenocytes were plated at a concentration of 5 x 10^5 cells per well in a 96-well culture plate. […] Moreover, spleen cells were also cultured just with medium (free of compounds or vehicle) or with DMSO 0.1%. […] After, the propidium iodide incorporation was performed according to the instructions of the Propidium Iodide Kit (Sigma, Copenhagen, Denmark). The splenocytes were analyzed in a FACS Canto II flow cytometer. The data files were saved using FACS Diva software and data analysis was done using Flow Jo software. […] Data obtained from experiments were expressed as the mean ± standard error of the mean (S.E.M.) of spleen died cells and statistical differences between the treated and the vehicle groups of experiments were evaluated by ANOVA and Dunnett hoc tests.

[6] = system: L. major promastigote LV39 substrain; experiment: In vitro activity against promastigotes, LV39; type: cell-based; settings: Leishmania major
Protocol: as §3

L. major LV39 = experiment: In vivo activity against Leishmania major LV39 substrain; design: species or system BALB/c mice; settings: LASSBio-1491 10 μmol/Kg/day, glucantime 30 μmol/Kg/day x 28 days, i.p.
Protocol: Thus, 6-week-old female BALB/c mice weighing approximately 20 g were used. […] Briefly, ketamine (80mg/kg) and xylazine (8 mg/kg) were simultaneously used to anesthetize the mice by intraperitoneal injection. The promastigotes of L. major LV39 substrain in the stationary phase, harvested after the third passage (obtained from parasites frozen), were inoculated subcutaneously at a concentration of 1x 10^5 parasites in the right ear of mice. […] The size of the lesions was measured using a pachymeter. Thiopental (150 mg/kg, i.p.) was used to euthanize the mice and the quantitative limiting-dilution assay was used to determine the parasite burden of infected ears and draining lymph nodes. The results obtained from experiments were expressed as the mean ± S.E.M. with the data analyzed (size of the lesions or parasite burden) by ANOVA and Dunnett hoc tests, considering a significance level of p < 0.05.

- Classification (PAMPA-GIT permeability): Low (low permeability (0–29%))
- Fa experimental (PAMPA-GIT permeability): 1.70%
Compound: Nc1nc2c(ncn2COCCO)c(=O)[nH]1 [Acyclovir]

- Fa experimental (PAMPA-GIT permeability): 2.26%
Compound: CC(C)NCC(O)COc1ccc(CC(N)=O)cc1 (stereo not drawn) [Atenolol]
- Fa literature [1]: 5.2%

Compound: Cn1c(=O)c2c(ncn2C)n(C)c1=O [Caffeine, reference compound]
- Papp (PAMPA-BBB permeability; PAMPA): 0.81 ×10⁻⁶ cm/s
- Classification (PAMPA-BBB permeability): CNS -

- Classification (PAMPA-GIT permeability): Low (low permeability (0–29%))
- Fa experimental (PAMPA-GIT permeability): 1.37%
Compound: CO/N=C(\C(=O)N[C@@H]1C(=O)N2C(C(=O)O)=C(CSc3nc(=O)c(=O)[nH]n3C)CS[C@H]12)c1csc(N)n1 [Ceftriaxone]
- Fa literature [1]: 1%
- Pe literature [1]: 0.1 10^−6 cm s^-1

- Fa experimental (PAMPA-GIT permeability): 99.28%
Compound: O=C(O)Cc1ccccc1Nc1c(Cl)cccc1Cl [Diclofenac]
- Fa literature [1]: 100%
- Pe literature [1]: 12.5 10^−6 cm s^-1
- Classification (PAMPA-GIT permeability): High (high intestinal permeability (70–100%))

- Classification (PAMPA-BBB permeability): CNS -
Compound: CCn1cc(C(=O)O)c(=O)c2cc(F)c(N3CCNCC3)nc21 [Enoxacin, reference compound]

- Papp (PAMPA-GIT permeability; PAMPA): 0.7 ×10⁻⁶ cm/s
Compound: CCn1cc(C(=O)O)c(=O)c2cc(F)c(N3CCNCC3)cc21 [Norfloxacin]

Compound: N=C(N)c1ccc(OCCCCCOc2ccc(C(=N)N)cc2)cc1 [Pentamidine, reference compound]
- IC50 ([2]; Macrophage, amastigote 5-ASKH in macrophages, 24 h): 17.1 ± 5.6 µM
- Emax ([2]; amastigote 5-ASKH, read-out: Maximum effect (% ± S.E.M.)): 53.8 ± 1.1%
- NO production (nitrite) [3]: did not
- IC50 ([4]; Macrophage, amastigote LV39 in macrophages, 24 h): 8.1 ± 0.9 µM
- Emax ([4]; amastigote LV39, read-out: Maximum effect (% ± S.E.M.)): 63.2 ± 2.9%
- IC50 ([5]; 48 h): 0.8 ± 0.1 µM
- Emax ([5]; read-out: Maximum effect (% ± S.E.M.)): 72.6 ± 2%
- IC50 (spleen cells): > 100 µM
- IC50 ([6]; promastigote LV39, 48 h): 5.7 ± 0.2 µM
- Emax ([6]; promastigote LV39, read-out: Maximum effect (% ± S.E.M.)): 88.1 ± 0.1%

- Classification (PAMPA-GIT permeability): Medium (medium permeability (30–69%))
- Fa experimental (PAMPA-GIT permeability): 38.29%
Compound: CNC(=C[N+](=O)[O-])NCCSCc1ccc(CN(C)C)o1 [Ranitidine]

Compound: O=C(O)c1cc(/N=N/c2ccc(S(=O)(=O)Nc3ccccn3)cc2)ccc1O [Sulfasalazine]
- Fa literature [1]: 42%
- Pe literature [1]: 0.3 10^−6 cm s^-1

Compound: meglumine antimoniate [glucantime, reference compound]
- lesion size (L. major LV39): reduced lesion size only between days 7 and 17
- parasite load in draining lymph node (L. major LV39): reduce the parasite load
- parasite load in infected ear (L. major LV39): reduce the parasite load

— publication PMC9170106, “Pre-clinical evaluation of LASSBio-1491: From in vitro pharmacokinetic study to in vivo leishmanicidal activity” (PLoS ONE, 2022)
